Data published in patent US6025358A, “Double prodrugs of potent GP IIb/IIIa antagonists” (G. D. Searle & Co., priority 1999, dated 2000).
Structures can show the parent of a compound that is named as a salt.

Each compound was assayed on platelet aggregation (assay: Ex vivo screening of oral GP IIb/IIIa inhibitors: inhibition of collagen-induced platelet aggregation in PRP after oral dosing in beagles). Conditions: Canis lupus familiaris, Platelet, beagle dogs, 5 mpk, n = 2, 32 hours post-dosing, collagen agonist, read-out: Percent inhibition of platelet aggregation at 32 hour post-dosing.
Protocol: Beagles (8-13 kg, various sources) of either sex are dosed orally with compound in a gelatin capsule. Blood samples are drawn from the cephalic vein using a 23 ga infusion butterfly. Samples for platelet aggregation and drug concentration are taken prior to dosing and 0.5, 1, 2, 3, 5, 7 and 10 hours after dosing and periodically on subsequent days until inhibition of platelet aggregation is less than 30%. Animals are fasted, with ad lib access to water, overnight prior to dosing. For measurement of plasma concentration blood is drawn into a 3 ml tube containing 45 USP units of Na Heparin. Blood is centrifuged at 1700×g for 10 minutes, plasma is aspirated and frozen at -20° C. until analyzed by HPLC. For measurement of platelet aggregation, blood is drawn into 2 2.0 ml tubes containing 0.2 ml of 3.8% Na Citrate. Blood is centrifuged at 250×g for 6 minutes and the platelet rich plasma (PRP) is aspirated. The remaining blood is centrifuged at 1700×g for 10 minutes and platelet poor plasma (PPP) is aspirated. Platelet aggregation is performed in a Bio-Data PAP-4 aggregometer (Bio-Data Corp., Havertown, Pa.) using collagen (100 μg/ml final concentration; Helena Laboratories, Beaumont, Tex.) as the agonist. Briefly, baseline (100% aggregation) is set using PPP; PRP is incubated at 37° C. for one minute without stirring and one minute with stirring, agonist is added and aggregation is allowed to develop for 4 minutes. Percent aggregation post-dosing is compared to percent aggregation pre-dosing to determine percent inhibition.
Percent inhibition of platelet aggregation at 32 hour post-dosing in
beagle dogs (5 mpk, n = 2)

Compared with `CC(C)OC(=O)CCNC(=O)N[C@H]1CCN(c2ccc(C(N)=NO)cc2)C1=O` [1(b), N-[[[(3S)-1-[4-[(hydroxyamino)iminomethyl]phenyl]-2-oxo-3-pyrrolidinyl]amino]carbonyl]-β-alanine 1-methylethyl ester monohydrochloride], `CC(C)COC(=O)CCNC(=O)N[C@H]1CCN(c2ccc(C(N)=NO)cc2)C1=O` [1(d), N-[[[(3S)-1-[4-[(hydroxyamino)iminomethyl]phenyl]-2-oxo-3-pyrrolidinyl]amino]carbonyl]-β-alanine 2-methylpropyl ester monohydrochloride] is lower in inhibition in vivo at 5 mg/kg: 71% for the first, 45% for the second.

Going from `COC(=O)CCNC(=O)N[C@H]1CCN(c2ccc(C(N)=NO)cc2)C1=O` [Example 1(a), N-[[[(3S)-1-[4-[(hydroxyamino)iminomethyl]phenyl]-2-oxo-3-pyrrolidinyl]amino]carbonyl]-β-alanine methyl ester] to `CCCOC(=O)CCNC(=O)N[C@H]1CCN(c2ccc(C(N)=NO)cc2)C1=O` [1(c), N-[[[(3S)-1-[4-[(hydroxyamino)iminomethyl]phenyl]-2-oxo-3-pyrrolidinyl]amino]carbonyl]-β-alanine propyl ester monohydrochloride], the inhibition in vivo at 5 mg/kg rises from 85% to 94%.

Going from `NC(=O)ON=C(N)c1ccc(N2CC[C@H](NC(=O)NCCC(=O)OC3CCCCC3)C2=O)cc1` [5(h), N-[[[(3S)-1-[4-[[[(aminocarbonyl)oxy]amino]iminomethyl]phenyl]-2-oxo-3-pyrrolidinyl]amino]carbonyl]-β-alanine cyclohexyl ester] to `CC(C)OC(=O)CCNC(=O)N[C@H]1CCN(c2ccc(C(N)=NOC(N)=O)cc2)C1=O` [5(b), N-[[[(3S)-1-[4-[[[(aminocarbonyl)oxy]amino]iminomethyl]phenyl]-2-oxo-3-pyrrolidinyl]amino]carbonyl]-β-alanine 1-methylethyl ester], the inhibition in vivo at 5 mg/kg rises from 28% to 64%.

Going from `CCCCOC(=O)CCNC(=O)N[C@H]1CCN(c2ccc(C(=N)NOC(=O)N(C)CCN(C)C)cc2)C1=O` [3(u), N-[[[(3S)-1-[4-(1-imino-5,8-dimethyl-4-oxo-3-oxa-2,5,8-triazanon-1-yl)phenyl]-2-oxo-3-pyrrolidinyl]amino]carbonyl]-β-alanine butyl ester dihydrochloride] to `CCCOC(=O)CCNC(=O)N[C@H]1CCN(c2ccc(C(=N)NOC(=O)N(C)CCN(C)C)cc2)C1=O` [3(m), N-[[[(3S)-1-[4-(1-imino-5,8-dimethyl-4-oxo-3-oxa-2,5,8-triazanon-1-yl)phenyl]-2-oxo-3-pyrrolidinyl]amino]carbonyl]-β-alanine propyl ester dihydrochloride], the inhibition in vivo at 5 mg/kg rises from 63% to 80%.

Going from `CC(C)OC(=O)CCNC(=O)N[C@H]1CCN(c2ccc(C(=N)NOC(=O)N3CCN(C)CC3)cc2)C1=O` [3(h), N-[[[(3S)-1-[4-[imino[[[(4-methyl-1-piperazinyl)carbonyl]oxy]amino]methyl]phenyl]-2-oxo-3-pyrrolidinyl]amino]carbonyl]-β-alanine 1-methylethyl ester dihydrochloride] to `COC(=O)CCNC(=O)N[C@H]1CCN(c2ccc(C(=N)NOC(=O)N3CCN(C)CC3)cc2)C1=O` [Example 3, N-[[[(3S)-1-[4-[imino[[[(4-methyl-1-piperazinyl)-carbonyl]oxy]amino]-methyl]phenyl]-2-oxo-3-pyrrolidinyl]amino]carbonyl]-β-alanine methyl ester], the inhibition in vivo at 5 mg/kg rises from 56% to 66%.

Compared with `CN1CCN(C(=O)ONC(=N)c2ccc(N3CC[C@H](NC(=O)NCCC(=O)OC4CCCCC4)C3=O)cc2)CC1` [3(cc), N-[[[(3S)-1-[4-[imino[[[(4-methyl-1-piperazinyl)carbonyl]oxy]amino]methyl]phenyl]-2-oxo-3-pyrrolidinyl]amino]carbonyl]-β-alanine cyclohexyl ester dihydrochloride monohydrate], `CCCOC(=O)CCNC(=O)N[C@H]1CCN(c2ccc(C(=N)NOC(=O)N3CCN(C)CC3)cc2)C1=O` [3(l), N-[[[(3S)-1-[4-[imino[[[(4-methyl-1-piperazinyl)carbonyl]oxy]amino]methyl]phenyl]-2-oxo-3-pyrrolidinyl]amino]carbonyl]-β-alanine propyl ester dihydrochloride] is higher in inhibition in vivo at 5 mg/kg: 22% for the first, 71% for the second.

Going from `CCOC(=O)CCNC(=O)N[C@H]1CCN(c2ccc(C(=N)NOC(=O)N(C)CCN(C)C)cc2)C1=O` [3(e), N-[[[(3S)-1-[4-(1-imino-5,8-dimethyl-4-oxo-3-oxa-2,5,8-triazanon-1-yl)phenyl]-2-oxo-3-pyrrolidinyl]amino]carbonyl]-β-alanine ethyl ester dihydrochloride] to `CC(C)COC(=O)CCNC(=O)N[C@H]1CCN(c2ccc(C(=N)NOC(=O)N(C)CCN(C)C)cc2)C1=O` [3(q), N-[[[(3S)-1-[4-(1-imino-5,8-dimethyl-4-oxo-3-oxa-2,5,8-triazanon-1-yl)phenyl]-2-oxo-3-pyrrolidinyl]amino]carbonyl]-β-alanine 2-methylpropyl ester dihydrochloride], the inhibition in vivo at 5 mg/kg rises from 54% to 57%.

First: CCCOC(=O)CCNC(=O)N[C@H]1CCN(c2ccc(C(N)=NOC(=O)N(C)C)cc2)C1=O [4(c), N-[[[(3S)-1-[4-[[[[(dimethylamino)carbonyl]oxy]amino]iminomethyl]phenyl]-2-oxo-3-pyrrolidinyl]amino]carbonyl]-β-alanine propyl ester]
Second: COC(=O)CCNC(=O)N[C@H]1CCN(c2ccc(C(N)=NOC(=O)N(C)C)cc2)C1=O [Example 4, N-[[[(3S)-1-[4-[[[[(dimethylamino)carbonyl]oxy]amino]iminomethyl]phenyl]-2-oxo-3-pyrrolidinyl]amino]carbonyl]-β-alanine methyl ester]
The inhibition in vivo at 5 mg/kg of the first is lower: 64% for the first, 68% for the second.

Compared with `COC(=O)CCNC(=O)N[C@H]1CCN(c2ccc(C(=N)NOC(=O)NCCN(C)C)cc2)C1=O` [3(b), N-[[[(3S)-1-[4-(1-imino-8-methyl-4-oxo-3-oxa-2,5,8-triazanon-1-yl)phenyl]-2-oxo-3-pyrrolidinyl]amino]carbonyl]-β-alanine methyl ester], `CCCOC(=O)CCNC(=O)N[C@H]1CCN(c2ccc(C(=N)NOC(=O)NCCN(C)C)cc2)C1=O` [3(n), N-[[[(3S)-1-[4-(1-imino-8-methyl-4-oxo-3-oxa-2,5,8-triazanon-1-yl)phenyl]-2-oxo-3-pyrrolidinyl]amino]carbonyl]-β-alanine propyl ester monoacetate monohydrate] is higher in inhibition in vivo at 5 mg/kg: 54% for the first, 73% for the second.

Going from `CCOC(=O)CCNC(=O)N[C@H]1CCN(c2ccc(C(N)=NOC(=O)OCC)cc2)C1=O` [Example 9, N-[[[(3S)-1-[4-[[[(ethoxycarbonyl)oxy]amino]iminomethyl]phenyl]-2-oxo-3-pyrrolidinyl]amino]carbonyl]-β-alanine ethyl ester] to `CC(C)(C)COC(=O)CCNC(=O)N[C@H]1CCN(c2ccc(C(N)=NO)cc2)C1=O` [1(f), N-[[[(3S)-1-[4-[(hydroxyamino)iminomethyl]phenyl]-2-oxo-3-pyrrolidinyl]amino]carbonyl]-β-alanine 2,2-dimethylpropyl ester], the inhibition in vivo at 5 mg/kg falls from 90% to 87%.

`CC(C)COC(=O)CCNC(=O)N[C@H]1CCN(c2ccc(C(=N)NOC(=O)NCCN(C)C)cc2)C1=O` [3(r), N-[[[(3S)-1-[4-(1-imino-8-methyl-4-oxo-3-oxa-2,5,8-triazanon-1-yl)phenyl]-2-oxo-3-pyrrolidinyl]amino]carbonyl]-β-alanine 2-methylpropyl ester monoacetate] gave an inhibition in vivo at 5 mg/kg of 46%.

Same assay, conditions: beagle dogs, 5 mpk, n = 2, 10 hours post-dosing, collagen agonist

Going from `CN(C)CCN(C)C(=O)ONC(=N)c1ccc(N2CC[C@H](NC(=O)NCCC(=O)O)C2=O)cc1.O.O=C(O)C(F)(F)F.O=C(O)C(F)(F)F` [6(a), N-[[[(3S)-1-[4-(1-imino-5,8-dimethyl-4-oxo-3-oxa-2,5,8-triazanon-1-yl)phenyl]-2-oxo-3-pyrrolidinyl]amino]carbonyl]-β-alanine bis(trifluoroacetate) monohydrate] to `N=C(N)c1ccc(N2CC[C@H](NC(=O)NCCC(=O)O)C2=O)cc1` [6(e), N-[[[(3S)-1-[4-(Aminoiminomethyl)phenyl]-2-oxo-3-pyrrolidinyl]amino]-carbonyl]-β-alanine trifluoroacetate, reference compound], the “% inhibition of platelet aggregation @ 10 hours” value falls from 61% to 28%.

Same assay, conditions: beagle dogs, 5 mpk, n = 2, 26 hours post-dosing, collagen agonist

Going from `COC(=O)CCNC(=O)N[C@H]1CCN(c2ccc(C(=N)NOC(=O)N(C)CCN(C)C)cc2)C1=O.Cl` [3(a), N-[[[(3S)-1-[4-(1-imino-5,8-dimethyl-4-oxo-3-oxa-2,5,8-triazanon-1-yl)phenyl]-2-oxo-3-pyrrolidinyl]amino]carbonyl]-β-alanine methyl ester monohydrochloride] to `CCOC(=O)CCNC(=O)N[C@H]1CCN(c2ccc(C(=N)NOC(=O)N3CCN(C)CC3)cc2)C1=O.Cl.Cl` [3(d), N-[[[(3S)-1-[4-[imino[[[(4-methyl-1-piperazinyl)carbonyl]oxy]amino]methyl]phenyl]-2-oxo-3-pyrrolidinyl]amino]carbonyl]-β-alanine ethyl ester dihydrochloride], the “% inhibition of platelet aggregation @ 26 hours” value rises from 33% to 88%.
